Positions of bridges follow the written chain, without caps; N, C: chain ends. Non-standard residues stand in square brackets, D forms with d. Residues, ends and D or L forms follow the SMILES beside them. Trp(1-CH2COOH) = N[C@@H](Cc1cn(CC(=O)O)c2ccccc12)C(=O)O; Phe(4-Cl) = N[C@@H](Cc1ccc(Cl)cc1)C(=O)O; Phe(4-F) = N[C@@H](Cc1ccc(F)cc1)C(=O)O; Hyp = O=C(O)[C@@H]1C[C@@H](O)CN1; Aad = N[C@@H](CCCC(=O)O)C(=O)O; NMeNle = CCCC[C@H](NC)C(=O)O; Pip = O=C(O)[C@@H]1CCCCN1; NMeA = CN[C@@H](C)C(=O)O; Orn = NCCC[C@H](N)C(=O)O; Dab = NCC[C@H](N)C(=O)O; Dap = NC[C@H](N)C(=O)O; AEA = NCCOCC(=O)O; GABA = NCCCC(=O)O
Biological target: T1, PD-1-Ig binding to PD-L1-TVMV-His (PD-L1-His) (Homo sapiens, UniProt Q9NZQ7)
T1 construct: hPDL1(19-239)-TVMV-His; made in house; host or cells: HEK293T cells
T1 sequence (Q9NZQ7 with tags, fused parts or gaps): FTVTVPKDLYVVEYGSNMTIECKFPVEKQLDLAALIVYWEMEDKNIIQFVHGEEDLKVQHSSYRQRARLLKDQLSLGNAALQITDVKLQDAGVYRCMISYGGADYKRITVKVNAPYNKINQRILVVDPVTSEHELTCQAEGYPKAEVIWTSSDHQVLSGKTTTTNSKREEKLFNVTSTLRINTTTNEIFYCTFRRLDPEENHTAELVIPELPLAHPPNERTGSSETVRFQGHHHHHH
Assay: PD-1/PD-L1 Homogenous Time-Resolved Fluorescence (HTRF) binding assay
Conditions: PD-1-Ig (20 nM) / PD-L1-His (10 nM); range classes
Text: The ability of the macrocyclic peptides of the present disclosure to bind to PD-L1 was investigated using a PD-1/PD-L1 Homogenous Time-Resolved Fluorescence (HTRF) binding assay.
Homogenous Time-Resolved Fluorescence (HTRF) Assays of Binding of Soluble PD-1 to Soluble PD-L1. Soluble PD-1 and soluble PD-L1 refers to proteins with carboxyl-end truncations that remove the transmembrane-spanning regions and are fused to heterologous sequences, specifically the Fc portion of the human immunoglobuling G sequence (Ig) or the hexahistidine epitope tag (His). All binding studies were performed in an HTRF assay buffer consisting of dPBS supplemented with 0.1% (w/v) bovine serum albumin and 0.05% (v/v) Tween-20. For the PD-1-Ig/PD-L1-His binding assay, inhibitors were pre-incubated with PD-L1-His (10 nM final) for 15 m in 4 μl of assay buffer, followed by addition of PD-1-Ig (20 nM final) in 1 μl of assay buffer and further incubation for 15 m. PD-L1 fusion proteins from either human, cynomologous macaques, mouse, or other species were used. HTRF detection was achieved using europium crypate-labeled anti-Ig monoclonal antibody (1 nM final) and allophycocyanin (APC) labeled anti-His monoclonal antibody (20 nM final). Antibodies were diluted in HTRF detection buffer and 5 μl was dispensed on top of binding reaction. […] Additional binding assays were established between PD-1-Ig/PD-L2-His (20 and 5 nM, respectively), CD80-His/PD-L1-Ig (100 and 10 nM, respectively) and CD80-His/CTLA4-Ig (10 and 5 nM, respectively).
Recombinant Proteins. […] Human PD-L2-His (Sino Biologicals), CD80-His (Sino Biologicals), CTLA4-Ig (RnD Systems) were all obtained through commercial sources.

| IC50 | SMILES |
| --- | --- |
| 100 to 10000 nM | CCCC[C@H]1C(=O)N(C)[C@@H](CCCC)C(=O)N[C@@H](CC(C)C)C(=O)N[C@H](C(=O)NCC(N)=O)CCCNCC(=O)N[C@@H](Cc2ccccc2)C(=O)N(C)[C@@H](C)C(=O)N[C@@H](CC(C)C)C(=O)N2CCC[C@H]2C(=O)N[C@@H](CC(C)C)C(=O)N[C@@H](CC(C)C)C(=O)N2CCC[C@H]2C(=O)N[C@@H](Cc2c[nH]c3ccccc23)C(=O)N[C@@H](CC(C)C)C(=O)N[C@@H](Cc2c[nH]c3ccccc23)C(=O)N1C [Example 10010] |
| 1 to 9.9 nM | CCCC[C@H]1C(=O)N(C)[C@@H](CCCC)C(=O)N[C@@H](CCC(=O)O)C(=O)N[C@H](C(N)=O)CNCC(=O)N[C@@H](Cc2ccc(O)cc2)C(=O)N2CCCC[C@H]2C(=O)N[C@@H](CC(N)=O)C(=O)N2CCC[C@H]2C(=O)N[C@@H](Cc2c[nH]cn2)C(=O)N[C@@H](CCC(=O)O)C(=O)N2C[C@H](O)C[C@H]2C(=O)N[C@@H](Cc2c[nH]c3ccccc23)C(=O)N[C@@H](C)C(=O)N[C@@H](Cc2cn(CC(=O)O)c3ccccc23)C(=O)N1C [Example 9055] |
| 10 to 99 nM | CCCC[C@H]1C(=O)N(C)[C@@H](CCCC)C(=O)N[C@@H](CC(C)C)C(=O)N[C@H](C(=O)NCC(N)=O)CCNCC(=O)N[C@@H](Cc2ccc(O)cc2)C(=O)N(C)[C@@H](C)C(=O)N[C@@H](CC(N)=O)C(=O)N2CCC[C@H]2C(=O)N[C@@H](Cc2cnc[nH]2)C(=O)N[C@@H](CCC(N)=O)C(=O)N2C[C@H](O)C[C@H]2C(=O)N[C@@H](Cc2c[nH]c3ccccc23)C(=O)NCC(=O)N[C@@H](Cc2cn(CC(=O)O)c3ccccc23)C(=O)N1C [Example 10021] |
| 10 to 99 nM | CCCC[C@H]1C(=O)N(C)[C@@H](CCCC)C(=O)N[C@@H](CCC(=O)O)C(=O)N[C@H](C(=O)NCC(N)=O)CNCC(=O)N[C@@H](Cc2ccc(F)cc2)C(=O)N(C)[C@@H](C)C(=O)N[C@@H](CC(N)=O)C(=O)N2CCC[C@H]2C(=O)N[C@@H](CCC(N)=O)C(=O)N[C@@H](CC(C)C)C(=O)N2C[C@H](O)C[C@H]2C(=O)N[C@@H](Cc2c[nH]c3ccccc23)C(=O)N[C@@H](CC(N)=O)C(=O)N[C@@H](Cc2cn(CC(=O)O)c3ccccc23)C(=O)N1C [Example 9022] |
| 10 to 99 nM | CCCC[C@H]1C(=O)N(C)[C@@H](CCCC)C(=O)N[C@@H](CC(C)C)C(=O)N[C@H](C(N)=O)CCCC(=O)N[C@@H](Cc2ccc(F)cc2)C(=O)N2CCCC[C@H]2C(=O)N[C@@H](CC(=O)O)C(=O)N2CCC[C@H]2C(=O)N[C@@H](CN)C(=O)N[C@@H](CC(C)C)C(=O)N2C[C@H](O)C[C@H]2C(=O)N[C@@H](Cc2c[nH]c3ccccc23)C(=O)N[C@@H](CCN)C(=O)N[C@@H](Cc2cn(CC(=O)O)c3ccccc23)C(=O)N1C [Example 10555] ([Phe(4-F)][Pip]DP[Dap]L[Hyp]W[Dab][Trp(1-CH2COOH)][NMeNle][NMeNle]L[Aad]-NH2; lactam N-14) |
| 10 to 99 nM | CCCC[C@H]1C(=O)N(C)[C@@H](CCCC)C(=O)N[C@@H](CC(C)C)C(=O)NCCC[C@H](N)C(=O)N[C@@H](Cc2ccc(F)cc2)C(=O)N2CCCC[C@H]2C(=O)N[C@@H](CC(N)=O)C(=O)N2CCC[C@H]2C(=O)N[C@@H](CN)C(=O)N[C@@H](CC(C)C)C(=O)N2C[C@H](O)C[C@H]2C(=O)N[C@@H](Cc2c[nH]c3ccccc23)C(=O)N[C@@H](CCN)C(=O)N[C@@H](Cc2cn(CC(=O)O)c3ccccc23)C(=O)N1C [Example 10550] (H-[Orn][Phe(4-F)][Pip]NP[Dap]L[Hyp]W[Dab][Trp(1-CH2COOH)][NMeNle][NMeNle]L; lactam 1-C) |
| 1 to 9.9 nM | CCCC[C@H]1C(=O)N(C)[C@@H](CCCC)C(=O)N[C@@H](CCC(=O)O)C(=O)N[C@H](C(N)=O)CCCC(=O)N[C@@H](Cc2ccc(Cl)cc2)C(=O)N2CCCC[C@H]2C(=O)N[C@@H](CC(N)=O)C(=O)N2CCC[C@H]2C(=O)N[C@@H](CN)C(=O)N[C@@H](CC(C)C)C(=O)N2C[C@H](O)C[C@H]2C(=O)N[C@@H](Cc2c[nH]c3ccccc23)C(=O)N[C@@H](CCN)C(=O)N[C@@H](Cc2cn(CC(=O)O)c3ccccc23)C(=O)N1C [Example 10557] ([Phe(4-Cl)][Pip]NP[Dap]L[Hyp]W[Dab][Trp(1-CH2COOH)][NMeNle][NMeNle]E[Aad]-NH2; lactam N-14) |
| 1 to 9.9 nM | CCCC[C@H]1C(=O)N(C)[C@@H](CCCC)C(=O)N[C@@H](C)C(=O)N[C@H](C(=O)NCC(N)=O)CNCC(=O)N[C@@H](Cc2ccc(O)cc2)C(=O)N(C)[C@@H](C)C(=O)N[C@@H](CC(=O)O)C(=O)N2CCC[C@H]2C(=O)N[C@@H](Cc2cnc[nH]2)C(=O)N[C@@H](CCC(N)=O)C(=O)N2C[C@H](O)C[C@H]2C(=O)N[C@@H](Cc2c[nH]c3ccccc23)C(=O)N[C@@H](CO)C(=O)N[C@@H](Cc2cn(CC(=O)O)c3ccccc23)C(=O)N1C [Example 10014] |
| 1 to 9.9 nM | CCCC[C@H]1C(=O)N(C)[C@@H](CCCC)C(=O)N[C@@H](CC(C)C)C(=O)NCCOCC(=O)N[C@@H](Cc2ccc(O)cc2)C(=O)N(C)[C@@H](C)C(=O)N[C@@H](CC(N)=O)C(=O)N2CCC[C@H]2C(=O)N[C@@H](CN)C(=O)N[C@@H](CC(C)C)C(=O)N2C[C@H](O)C[C@H]2C(=O)N[C@@H](Cc2c[nH]c3ccccc23)C(=O)N[C@@H](CCN)C(=O)N[C@@H](Cc2c[nH]c3ccccc23)C(=O)N1C [Example 10501] (cyclo([AEA]Y[NMeA]NP[Dap]L[Hyp]W[Dab]W[NMeNle][NMeNle]L)) |
| 100 to 10000 nM | CCCC[C@H]1C(=O)N(C)[C@@H](CCCC)C(=O)N[C@@H](CC(C)C)C(=O)NCCCC(=O)NCC(=O)N[C@@H](Cc2ccc(O)cc2)C(=O)N(C)[C@@H](C)C(=O)N[C@@H](CC(N)=O)C(=O)N2CCC[C@H]2C(=O)N[C@@H](Cc2c[nH]cn2)C(=O)N[C@@H](CC(C)C)C(=O)N2C[C@H](O)C[C@H]2C(=O)N[C@@H](Cc2c[nH]c3ccccc23)C(=O)NCC(=O)N[C@@H](Cc2c[nH]c3ccccc23)C(=O)N1C [Example 5005] (cyclo(GW[NMeNle][NMeNle]L[GABA]GY[NMeA]NPHL[Hyp]W)) |
| 1 to 9.9 nM | CCCC[C@H]1C(=O)N(C)[C@@H](CCCC)C(=O)N[C@@H](CC(C)C)C(=O)N[C@H](C(=O)NCC(N)=O)CNCC(=O)N[C@@H](Cc2ccc(O)cc2)C(=O)N(C)[C@@H](C)C(=O)N[C@@H](CC(N)=O)C(=O)N2CCC[C@H]2C(=O)N[C@@H](Cc2cnc[nH]2)C(=O)N[C@@H](CC(C)C)C(=O)N2C[C@H](O)C[C@H]2C(=O)N[C@@H](Cc2c[nH]c3ccccc23)C(=O)N[C@@H](CO)C(=O)N[C@@H](Cc2cn(CC(=O)O)c3ccccc23)C(=O)N1C [Example 10007] |
| 10 to 99 nM | CCCC[C@H]1C(=O)N(C)[C@@H](CCCC)C(=O)N[C@@H](CC(C)C)C(=O)NCCC[C@H](N)C(=O)N[C@@H](Cc2ccc(F)cc2)C(=O)N2CCCC[C@H]2C(=O)N[C@@H](CC(N)=O)C(=O)N2CCC[C@H]2C(=O)N[C@@H](CN)C(=O)N[C@@H](CCC(=O)O)C(=O)N2C[C@H](O)C[C@H]2C(=O)N[C@@H](Cc2c[nH]c3ccccc23)C(=O)N[C@@H](CCN)C(=O)N[C@@H](Cc2cn(CC(=O)O)c3ccccc23)C(=O)N1C [Example 10548] (H-[Orn][Phe(4-F)][Pip]NP[Dap]E[Hyp]W[Dab][Trp(1-CH2COOH)][NMeNle][NMeNle]L; lactam 1-C) |
| 1 to 9.9 nM | CCCC[C@H]1C(=O)N(C)[C@@H](CCCC)C(=O)N[C@@H](CC(C)C)C(=O)N[C@H](C(N)=O)CNCC(=O)N[C@@H](Cc2ccc(F)cc2)C(=O)N2CCCC[C@H]2C(=O)N[C@@H](CC(=O)O)C(=O)N2CCC[C@H]2C(=O)N[C@@H](CCC(N)=O)C(=O)N[C@@H](CCC(=O)O)C(=O)N2C[C@H](O)C[C@H]2C(=O)N[C@@H](Cc2c[nH]c3ccccc23)C(=O)N[C@@H](CC(N)=O)C(=O)N[C@@H](Cc2cn(CC(=O)O)c3ccccc23)C(=O)N1C [Example 9040] |
| 1 to 9.9 nM | CCCC[C@H]1C(=O)N(C)[C@@H](CCCC)C(=O)N[C@@H](CCC(=O)O)C(=O)N[C@H](C(N)=O)CNCC(=O)N[C@@H](Cc2ccc(O)cc2)C(=O)N2CCCC[C@H]2C(=O)N[C@@H](CC(N)=O)C(=O)N2CCC[C@H]2C(=O)N[C@@H](CCC(N)=O)C(=O)N[C@@H](CCC(N)=O)C(=O)N2C[C@H](O)C[C@H]2C(=O)N[C@@H](Cc2c[nH]c3ccccc23)C(=O)N[C@@H](CC(N)=O)C(=O)N[C@@H](Cc2cn(CC(=O)O)c3ccccc23)C(=O)N1C [Example 9045] |
| 1 to 9.9 nM | CCCC[C@H]1C(=O)N(C)[C@@H](CCCC)C(=O)N[C@@H](CCC(=O)O)C(=O)N[C@H](C(N)=O)CNCC(=O)N[C@@H](Cc2ccc(F)cc2)C(=O)N2CCCC[C@H]2C(=O)N[C@@H](CC(N)=O)C(=O)N2CCC[C@H]2C(=O)N[C@@H](CCC(N)=O)C(=O)N[C@@H](CC(C)C)C(=O)N2C[C@H](O)C[C@H]2C(=O)N[C@@H](Cc2c[nH]c3ccccc23)C(=O)N[C@@H](CC(N)=O)C(=O)N[C@@H](Cc2cn(CC(=O)O)c3ccccc23)C(=O)N1C [Example 9046] |

— US9732119B2, “Immunomodulators” (BRISTOL-MYERS SQUIBB COMPANY, priority 2014, dated 2017)
